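Where inhibition never reached the appropriate level, the endpoint shown equals the highest concentration tested. Otherwise, values were interpolated linearly from a five-concentration, 48-hour dose response in 96-well plates. Abbreviation: GI50, concentration required for 50% inhibition of growth. TGI: concentration producing complete growth inhibition.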
Columns and labels:
Test in all cases: NCI-60 cell line screen, 48 h
HCT-15 colon = tested on: HCT-15 colon
SNB-19 CNS = tested on: SNB-19 CNS
UACC-62 melanoma = tested on: UACC-62 melanoma
SF-295 CNS = tested on: SF-295 CNS
IGROV1 ovarian = tested on: IGROV1 ovarian
HCC-2998 colon = tested on: HCC-2998 colon
SNB-75 CNS = tested on: SNB-75 CNS
NCI-H522 lung = tested on: NCI-H522 lung
OVCAR-8 ovarian = tested on: OVCAR-8 ovarian
OVCAR-4 ovarian = tested on: OVCAR-4 ovarian
U251 CNS = tested on: U251 CNS
NCI-H23 lung = tested on: NCI-H23 lung
HOP-92 NSCLC = tested on: HOP-92 NSCLC
SK-OV-3 ovarian = tested on: SK-OV-3 ovarian
MDA-MB-231 breast = tested on: MDA-MB-231 breast
HS 578T breast = tested on: HS 578T breast
SN12C renal = tested on: SN12C renal
LOX IMVI melanoma = tested on: LOX IMVI melanoma
SK-MEL-2 melanoma = tested on: SK-MEL-2 melanoma
OVCAR-5 ovarian = tested on: OVCAR-5 ovarian
786-0 renal = tested on: 786-0 renal
TK-10 renal = tested on: TK-10 renal
CAKI-1 renal = tested on: CAKI-1 renal
NCI-H226 lung = tested on: NCI-H226 lung
SK-MEL-28 melanoma = tested on: SK-MEL-28 melanoma
UO-31 renal = tested on: UO-31 renal
ACHN renal = tested on: ACHN renal
PC-3 prostate = tested on: PC-3 prostate
MDA-MB-435 = tested on: MDA-MB-435
T-47D breast = tested on: T-47D breast
NCI/ADR-RES ovarian = tested on: NCI/ADR-RES ovarian
SW-620 colon = tested on: SW-620 colon
SR leukemia = tested on: SR leukemia
RXF 393 renal = tested on: RXF 393 renal
HL-60(TB) leukemia = tested on: HL-60(TB) leukemia
HOP-62 NSCLC = tested on: HOP-62 NSCLC
CCRF-CEM leukemia = tested on: CCRF-CEM leukemia
OVCAR-3 ovarian = tested on: OVCAR-3 ovarian
A498 renal = tested on: A498 renal
SF-539 CNS = tested on: SF-539 CNS
COLO 205 colon = tested on: COLO 205 colon
UACC-257 melanoma = tested on: UACC-257 melanoma
BT-549 breast = tested on: BT-549 breast
MALME-3M melanoma = tested on: MALME-3M melanoma
M14 melanoma = tested on: M14 melanoma
KM12 colon = tested on: KM12 colon
NCI-H460 lung = tested on: NCI-H460 lung
SF-268 CNS = tested on: SF-268 CNS
RPMI-8226 leukemia = tested on: RPMI-8226 leukemia
MCF7 breast = tested on: MCF7 breast
EKVX NSCLC = tested on: EKVX NSCLC
K-562 leukemia = tested on: K-562 leukemia
MOLT-4 leukemia = tested on: MOLT-4 leukemia
HCT-116 colon = tested on: HCT-116 colon
DU-145 prostate = tested on: DU-145 prostate
A549 NSCLC = tested on: A549 NSCLC
SK-MEL-5 melanoma = tested on: SK-MEL-5 melanoma
HT29 colon = tested on: HT29 colon

COC(=O)c1cc(-c2ccccc2)[nH]c1N/N=C/c1c(Cl)cccc1Cl
GI50 (HCT-15 colon): 0.308 µM | TGI (HCT-15 colon): > 36 µM | GI50 (SNB-19 CNS): 0.435 µM | TGI (SNB-19 CNS): 15.3 µM | GI50 (UACC-62 melanoma): 0.278 µM | TGI (UACC-62 melanoma): 9 µM | GI50 (SF-295 CNS): 0.195 µM | TGI (SF-295 CNS): 0.92 µM | GI50 (IGROV1 ovarian): 0.412 µM | GI50 (HCC-2998 colon): 0.363 µM | TGI (HCC-2998 colon): 23.4 µM | GI50 (SNB-75 CNS): 0.215 µM | TGI (SNB-75 CNS): 2.43 µM | GI50 (NCI-H522 lung): 0.26 µM | GI50 (OVCAR-8 ovarian): 0.473 µM | TGI (OVCAR-8 ovarian): > 100 µM | GI50 (OVCAR-4 ovarian): 0.729 µM | TGI (OVCAR-4 ovarian): > 28.6 µM | GI50 (U251 CNS): 0.332 µM | TGI (U251 CNS): 3.58 µM | GI50 (NCI-H23 lung): 0.438 µM | TGI (NCI-H23 lung): 15.4 µM | GI50 (HOP-92 NSCLC): 0.609 µM | TGI (HOP-92 NSCLC): 17.5 µM | GI50 (SK-OV-3 ovarian): 0.39 µM | TGI (SK-OV-3 ovarian): 3.26 µM | GI50 (MDA-MB-231 breast): 0.474 µM | TGI (MDA-MB-231 breast): 6.85 µM | GI50 (HS 578T breast): 0.221 µM | TGI (HS 578T breast): 3.5 µM | GI50 (SN12C renal): 0.518 µM | TGI (SN12C renal): > 36.6 µM | GI50 (LOX IMVI melanoma): 0.602 µM | TGI (LOX IMVI melanoma): 17.7 µM | GI50 (SK-MEL-2 melanoma): 0.615 µM | TGI (SK-MEL-2 melanoma): 17.2 µM | GI50 (OVCAR-5 ovarian): 0.732 µM | TGI (OVCAR-5 ovarian): 16.7 µM | GI50 (786-0 renal): 0.41 µM | TGI (786-0 renal): 8.39 µM | GI50 (TK-10 renal): 0.392 µM | TGI (TK-10 renal): 2.4 µM | GI50 (CAKI-1 renal): 0.354 µM | TGI (CAKI-1 renal): 4.39 µM | GI50 (NCI-H226 lung): 0.369 µM | GI50 (SK-MEL-28 melanoma): 0.535 µM | TGI (SK-MEL-28 melanoma): 17.4 µM | GI50 (UO-31 renal): 0.609 µM | TGI (UO-31 renal): > 56.3 µM | GI50 (ACHN renal): 0.858 µM | TGI (ACHN renal): 26.4 µM | GI50 (PC-3 prostate): 0.41 µM | GI50 (MDA-MB-435): 0.0311 µM | TGI (MDA-MB-435): 0.119 µM | GI50 (T-47D breast): 0.418 µM | TGI (T-47D breast): 7.36 µM | GI50 (NCI/ADR-RES ovarian): 0.22 µM | TGI (NCI/ADR-RES ovarian): 0.77 µM | GI50 (SW-620 colon): 0.279 µM | TGI (SW-620 colon): > 38.8 µM | GI50 (SR leukemia): 0.429 µM | TGI (SR leukemia): > 100 µM | GI50 (RXF 393 renal): 0.616 µM | TGI (RXF 393 renal): 52 µM | GI50 (HL-60(TB) leukemia): 0.289 µM | GI50 (HOP-62 NSCLC): 0.471 µM | TGI (HOP-62 NSCLC): > 33.6 µM | GI50 (CCRF-CEM leukemia): 0.348 µM | TGI (CCRF-CEM leukemia): 93 µM | GI50 (OVCAR-3 ovarian): 0.17 µM | TGI (OVCAR-3 ovarian): 0.356 µM | GI50 (A498 renal): 0.198 µM | TGI (A498 renal): 0.704 µM | GI50 (SF-539 CNS): 0.218 µM | TGI (SF-539 CNS): 0.605 µM | GI50 (COLO 205 colon): 0.301 µM | TGI (COLO 205 colon): > 40.1 µM | GI50 (UACC-257 melanoma): 3.58 µM | TGI (UACC-257 melanoma): 41.3 µM | GI50 (BT-549 breast): 0.466 µM | TGI (BT-549 breast): 6.69 µM | GI50 (MALME-3M melanoma): 0.34 µM | TGI (MALME-3M melanoma): 6.67 µM | GI50 (M14 melanoma): 0.24 µM | TGI (M14 melanoma): 1.37 µM | GI50 (KM12 colon): 0.274 µM | TGI (KM12 colon): 1.57 µM | GI50 (NCI-H460 lung): 0.319 µM | TGI (NCI-H460 lung): 1.25 µM | GI50 (SF-268 CNS): 0.436 µM | TGI (SF-268 CNS): 8.25 µM | GI50 (RPMI-8226 leukemia): 0.243 µM | TGI (RPMI-8226 leukemia): 0.753 µM | GI50 (MCF7 breast): 0.266 µM | TGI (MCF7 breast): 4.85 µM | GI50 (EKVX NSCLC): 0.454 µM | TGI (EKVX NSCLC): > 37.3 µM | GI50 (K-562 leukemia): 0.729 µM | TGI (K-562 leukemia): > 100 µM | GI50 (MOLT-4 leukemia): 0.437 µM | TGI (MOLT-4 leukemia): > 100 µM | GI50 (HCT-116 colon): 0.318 µM | TGI (HCT-116 colon): 1.71 µM | GI50 (DU-145 prostate): 0.322 µM | TGI (DU-145 prostate): 1.14 µM | GI50 (A549 NSCLC): 0.501 µM | TGI (A549 NSCLC): > 44.1 µM | GI50 (SK-MEL-5 melanoma): 0.335 µM | TGI (SK-MEL-5 melanoma): 1.89 µM | GI50 (HT29 colon): 0.35 µM

— PubChem BioAssay (NCI)
